Measurements taken from PubChem BioAssay (NCI).
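1) Cells in 96-well plates. 2) Compound, 48 h, 5 concentrations. 3) Linear interpolation between surrounding doses. 4) Unreached endpoint = highest concentration. The concentration for full growth arrest is given as TGI.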

Tests used:
Assay in all cases: NCI tumour cell line growth inhibition, 48 h
[1] = system: 786-0 renal
[2] = system: A498 renal
[3] = system: A549 NSCLC
[4] = system: ACHN renal
[5] = system: BT-549 breast
[6] = system: CAKI-1 renal
[7] = system: CCRF-CEM leukemia
[8] = system: COLO 205 colon
[9] = system: DU-145 prostate
[10] = system: EKVX NSCLC
[11] = system: HCC-2998 colon
[12] = system: HCT-116 colon
[13] = system: HCT-15 colon
[14] = system: HL-60(TB) leukemia
[15] = system: HOP-62 NSCLC
[16] = system: HOP-92 NSCLC
[17] = system: HS 578T breast
[18] = system: HT29 colon
[19] = system: IGROV1 ovarian
[20] = system: K-562 leukemia
[21] = system: KM12 colon
[22] = system: LOX IMVI melanoma
[23] = system: M14 melanoma
[24] = system: MALME-3M melanoma
[25] = system: MCF7 breast
[26] = system: MDA-MB-231 breast
[27] = system: MDA-MB-435
[28] = system: MDA-N
[29] = system: MOLT-4 leukemia
[30] = system: NCI-H226 lung
[31] = system: NCI-H23 lung
[32] = system: NCI-H460 lung
[33] = system: NCI-H522 lung
[34] = system: NCI/ADR-RES ovarian
[35] = system: OVCAR-3 ovarian
[36] = system: OVCAR-4 ovarian
[37] = system: OVCAR-5 ovarian
[38] = system: OVCAR-8 ovarian
[39] = system: PC-3 prostate
[40] = system: RPMI-8226 leukemia
[41] = system: RXF 393 renal
[42] = system: SF-268 CNS
[43] = system: SF-295 CNS
[44] = system: SF-539 CNS
[45] = system: SK-MEL-2 melanoma
[46] = system: SK-MEL-28 melanoma
[47] = system: SK-MEL-5 melanoma
[48] = system: SK-OV-3 ovarian
[49] = system: SN12C renal
[50] = system: SNB-19 CNS
[51] = system: SNB-75 CNS
[52] = system: SR leukemia
[53] = system: SW-620 colon
[54] = system: T-47D breast
[55] = system: TK-10 renal
[56] = system: U251 CNS
[57] = system: UACC-257 melanoma
[58] = system: UACC-62 melanoma
[59] = system: UO-31 renal

## CCn1cc(C(=O)O)c(=O)c2cc(F)c(N3CCN(CN4C(=O)/C(=N\c5ncc(Cc6cc(OC)c(OC)c(OC)c6)c(N)n5)c5cc(Cl)ccc54)CC3)cc21
[1]
  TGI: > 100 µM
[2]
  TGI: > 100 µM
[3]
  TGI: > 100 µM
[4]
  TGI: > 100 µM
[5]
  TGI: > 100 µM
[6]
  TGI: > 100 µM
[7]
  TGI: > 100 µM
[8]
  TGI: > 100 µM
[9]
  TGI: > 100 µM
[10]
  TGI: > 100 µM
[11]
  TGI: > 100 µM
[12]
  TGI: > 100 µM
[13]
  TGI: > 100 µM
[14]
  TGI: > 100 µM
[15]
  TGI: > 100 µM
[16]
  TGI: > 100 µM
[17]
  TGI: > 100 µM
[18]
  TGI: > 100 µM
[19]
  TGI: > 100 µM
[20]
  TGI: > 100 µM
[21]
  TGI: > 100 µM
[22]
  TGI: > 100 µM
[23]
  TGI: > 100 µM
[24]
  TGI: > 100 µM
[25]
  TGI: > 100 µM
[26]
  TGI: > 100 µM
[27]
  TGI: > 100 µM
[28]
  TGI: > 100 µM
[29]
  TGI: > 100 µM
[30]
  TGI: > 100 µM
[31]
  TGI: > 100 µM
[32]
  TGI: > 100 µM
[33]
  TGI: > 100 µM
[34]
  TGI: > 100 µM
[35]
  TGI: > 100 µM
[36]
  TGI: > 100 µM
[37]
  TGI: > 100 µM
[38]
  TGI: > 100 µM
[39]
  TGI: > 100 µM
[40]
  TGI: > 100 µM
[41]
  TGI: > 100 µM
[42]
  TGI: > 100 µM
[43]
  TGI: > 100 µM
[44]
  TGI: > 100 µM
[45]
  TGI: > 100 µM
[46]
  TGI: > 100 µM
[47]
  TGI: > 100 µM
[48]
  TGI: > 100 µM
[49]
  TGI: > 100 µM
[50]
  TGI: > 100 µM
[51]
  TGI: > 100 µM
[52]
  TGI: > 100 µM
[53]
  TGI: > 100 µM
[54]
  TGI: > 100 µM
[55]
  TGI: > 100 µM
[56]
  TGI: > 100 µM
[57]
  TGI: > 100 µM
[58]
  TGI: > 100 µM
[59]
  TGI: > 100 µM

## Cc1ccc(O)c(C(c2ccc(C(c3cc(C)ccc3O)c3cc(C)ccc3O)cc2)c2cc(C)ccc2O)c1
[1]
  TGI: 3.11 µM
[2]
  TGI: 2.91 µM
[3]
  TGI: 3.23 µM
[4]
  TGI: 3.17 µM
[5]
  TGI: 3.49 µM
[6]
  TGI: 2.92 µM
[7]
  TGI: 5.63 µM
[8]
  TGI: 2.75 µM
[9]
  TGI: 3.21 µM
[10]
  TGI: 3.57 µM
[11]
  TGI: 3.31 µM
[12]
  TGI: 3.04 µM
[13]
  TGI: 3.2 µM
[14]
  TGI: 5.47 µM
[15]
  TGI: 4.36 µM
[16]
  TGI: 3.81 µM
[17]
  TGI: 4.7 µM
[18]
  TGI: 3.57 µM
[19]
  TGI: 3.16 µM
[20]
  TGI: 3.56 µM
[21]
  TGI: 3.09 µM
[22]
  TGI: 3.38 µM
[23]
  TGI: 3.36 µM
[24]
  TGI: 3.45 µM
[25]
  TGI: 4.36 µM
[26]
  TGI: 2.67 µM
[27]
  TGI: 3.29 µM
[28]
  TGI: 2.87 µM
[29]
  TGI: > 100 µM
[30]
  TGI: 3.61 µM
[31]
  TGI: 3.25 µM
[33]
  TGI: 3.62 µM
[34]
  TGI: 3.85 µM
[35]
  TGI: 3.86 µM
[36]
  TGI: 3.22 µM
[37]
  TGI: 3.28 µM
[38]
  TGI: 3.41 µM
[39]
  TGI: 3 µM
[40]
  TGI: 3.4 µM
[41]
  TGI: 3.4 µM
[42]
  TGI: 3.31 µM
[43]
  TGI: 4.01 µM
[44]
  TGI: 3.29 µM
[45]
  TGI: 3.89 µM
[46]
  TGI: 3.5 µM
[47]
  TGI: 3.22 µM
[48]
  TGI: 3.27 µM
[49]
  TGI: 3.1 µM
[50]
  TGI: 2.97 µM
[51]
  TGI: 3.49 µM
[52]
  TGI: 6.33 µM
[53]
  TGI: 3.48 µM
[54]
  TGI: 3.23 µM
[55]
  TGI: 2.93 µM
[56]
  TGI: 3.82 µM
[57]
  TGI: 3.33 µM
[58]
  TGI: 3.15 µM
[59]
  TGI: 3.25 µM
